The source of these data is US10940139B2, “Compounds that interact with the Ras superfamily for the treatment of cancers, inflammatory diseases, rasopathies, and fibrotic disease” (Shy Therapeutics LLC, priority 2017, dated 2021).

Test [1] relates to TNFα production in RAW 264.7 macrophage cell line. The test is described as follows: Mouse TNF alpha quantification assay (LPS-stimulated macrophages, ELISA). The test is classed as cell-based. To be noted: RAW264.7, RAW 264.7 murine leukemia virus transformed macrophage cell lines, LPS stimulation, read-out: TNF-α % Inhibition at 30 μM.
Test [2] relates to IL6 production in RAW 264.7 macrophage cell line. The test is described as follows: Mouse IL6 quantification assay (LPS-stimulated macrophages, ELISA). Format: cell-based. To be noted: RAW264.7, RAW 264.7 murine leukemia virus transformed macrophage cell lines, LPS stimulation, read-out: IL-6 % Inhibition at 30 μM. A general note: An ELISA detects its analyte on a solid surface through an enzyme-linked reagent.

In general, inhibition refers to the percentage by which the read-out fell short of the control. Regarding `O=C(CCc1cncnc1)Nc1nc(-c2ccccn2)nc2sccc12` [drawing 2283], the inhibition at 30 µM in test [1] was 0%; in test [2] it was 26 to 50%.
For `CC(C)COc1ccc(-c2c(-c3ccccc3)sc3c(O)nc(-c4nccn4C)nc23)cn1` [drawing 2414], the inhibition at 30 µM was in the range of 1 to 25% in test [1] and 51 to 75% in test [2].
With `COc1ccc(C2CN(C(=O)c3csc4c(O)nc(-c5ccccn5)nc34)CCO2)cc1` (stereo not shown) [drawing 2193], the inhibition at 30 µM fell in the range of 1 to 25% in test [1] and 76 to 100% in test [2].
The like results for `COCCNc1nc(-c2ccccn2)nc(-c2cccc(OCCN(C)C)c2)c1Oc1ccccc1` [drawing 2356] were, in that order, 1 to 25% and 0%.
As to `O=C(CCn1ccc2ccccc21)Nc1nnc(-c2ccccn2)[nH]1` [drawing 1934], the inhibition at 30 µM in test [1] and in test [2] was 1 to 25% in each case.
Take `Cc1cnc(-c2ccccn2)nc1NC(=O)Cc1ccc2cnccc2c1` [drawing 2249]: the values for the inhibition at 30 µM in test [1] and in test [2] were 0% and 76 to 100%, respectively.
Turning to `O=S1(=O)CCN(Cc2cccc(-c3csc4c(O)nc(-c5ccccn5)nc34)c2)CC1` [drawing 2256], the inhibition at 30 µM was in the range of 1 to 25% in test [1] and 76 to 100% in test [2].
For `COCCCCNC(=O)c1csc2nc(-c3ccccn3)nc(N3CCS(=O)(=O)CC3)c12` [drawing 2219], the figures for the inhibition at 30 µM in test [1] and in test [2] were 0% and 26 to 50%, respectively.
Take `Cc1ccc(CC(=O)Nc2nnc(-c3ccccn3)[nH]2)cc1` [drawing 1943]: the inhibition at 30 µM is 0% in test [1] and 1 to 25% in test [2].
As for `Cc1sc2c(O)nc(-c3ccccn3)nc2c1-c1cccnc1` [drawing 2306], the inhibition at 30 µM in test [1] is 0%; in test [2] it was 51 to 75%.
With `Cc1nc(-c2ccccn2)nc(O)c1CCC(=O)NCC1COc2ccccc2O1` (stereo not shown) [drawing 2035], the inhibition at 30 µM in test [1] is 1 to 25%; in test [2], 0%.
Consider `Cn1cnc(-c2nc(O)c3sc(-c4ccncc4)c(-c4ccccc4)c3n2)c1` [drawing 2376], for which the inhibition at 30 µM in test [1] is 0%; in test [2] it was 1 to 25%.
Regarding `COCCNc1nc(-c2nccn2C)nc2sc(C3CCOCC3)c(-c3ccccc3)c12` [drawing 2417], the inhibition at 30 µM in test [1] and in test [2] was 76 to 100% throughout.
With `CC(Nc1nc(-c2ccccn2)nc2scc(-c3ccccc3)c12)c1nncn1C` (stereo not shown) [drawing 2138], the inhibition at 30 µM in test [1] and in test [2] was 1 to 25% throughout.
For `O=C(Cn1cnc2ccccc2c1=O)Nc1nc(-c2ccccn2)cs1` [drawing 2015], the inhibition at 30 µM in test [1] is 1 to 25%; in test [2], 51 to 75%.
With `CC(O)CNc1nc(-c2nccn2C)nc2sc(-c3ccccc3)c(-c3ccccc3)c12` (stereo not shown) [drawing 2396], the inhibition at 30 µM is 0% in test [1] and 26 to 50% in test [2].
The like results for `Cn1cc(C2CC2C(=O)Nc2nnc(-c3ccccn3)[nH]2)cn1` (stereo not shown) [drawing 1932] were, in that order, 1 to 25% and 0%.
For `O=C(c1csc2c(O)nc(-c3ccccn3)nc12)N1CCNC(Cc2ccc(F)cc2)C1` (stereo not shown) [drawing 2224], the results for the inhibition at 30 µM in test [1] and in test [2] were 1 to 25% and 26 to 50%, respectively.
Turning to `NC(=O)C1(CNc2nc(-c3ccccn3)nc3c2CCC3)CCCC1` [drawing 2043], the results for the inhibition at 30 µM in test [1] and in test [2] were 1 to 25% and 26 to 50%, respectively.
On to `Oc1nc(-c2ccccn2)nc2cc(-c3ccccc3Cl)sc12` [drawing 2383], for which the results for the inhibition at 30 µM in test [1] and in test [2] were 0% and 26 to 50%, respectively.
On to `COc1ccc(CCN(C)C(=O)c2csc3nc(-c4ccccn4)nc(N4CCOCC4)c23)cn1` [drawing 2173], for which the figures for the inhibition at 30 µM in test [1] and in test [2] were 0% and 26 to 50%, respectively.
In the case of `CC(C)(C)c1nc(C(=O)Nc2nnc(-c3ccccn3)[nH]2)cs1` [drawing 1991], the inhibition at 30 µM in test [1] was 0%; in test [2] it was 1 to 25%.
For the compound `Oc1nc(-c2ccccn2)nc2c(-c3cncc(F)c3)csc12` [drawing 2302], the values for the inhibition at 30 µM in test [1] and in test [2] were 0% and 51 to 75%, respectively.
Regarding `COc1ccc(OCc2nc(CNCCc3nnc4n3CCC4)cs2)cc1` [drawing 2006], the inhibition at 30 µM in test [1] was 0%; in test [2] it was 1 to 25%.
In the case of `COC(=O)c1c(C)sc2c(O)nc(-c3ccccn3)nc12` [drawing 2311], the inhibition at 30 µM in test [1] fell in the range of 1 to 25%; in test [2] it was 76 to 100%.
As to `O=C(NCCc1cnc(O)nc1)c1csc2nc(-c3ccccn3)nc(N3CCS(=O)(=O)CC3)c12` [drawing 2247], the inhibition at 30 µM in test [1] is 0%; in test [2], 51 to 75%.
Take `Nc1nc(-c2ccccn2)nc2c(-c3ccccc3Cl)csc12` [drawing 2228]: the results for the inhibition at 30 µM in test [1] and in test [2] were 1 to 25% and 76 to 100%, respectively.
As to `COCc1ccc(-c2csc3c(O)nc(-c4ccccn4)nc23)cc1F` [drawing 2239], the figures for the inhibition at 30 µM in test [1] and in test [2] were 51 to 75% and 76 to 100%, respectively.
As to `Oc1ccc(C2(c3cccc(Cl)c3)CCCC2)cc1` [drawing 2055], the inhibition at 30 µM in test [1] and in test [2] was 76 to 100% each time.
Regarding `CC(C)C1=C(O)C2(CC2c2ccc(-c3ccccc3)cc2)C(C)CC1` (stereo not shown) [drawing 2068], the inhibition at 30 µM in test [1] was 1 to 25%; in test [2], 0%.
For `COc1ccnc(-c2nc(O)c3ccsc3n2)c1` [drawing 2166], in that order: 1 to 25% and 1 to 25%.
For `COC(=O)C(C)CN(Cc1cc(Br)ccc1[N+](=O)[O-])C1CC1` (stereo not shown) [drawing 2063], in that order: 0% and 26 to 50%.
In the case of `CC(C)c1nc(CC(=O)Nc2nnc(-c3ccccn3)[nH]2)cs1` [drawing 1949], the inhibition at 30 µM in test [1] is 0%; in test [2] it was 1 to 25%.
Turning to `COc1ccc(C2CN(C(=O)c3csc4c(O)nc(-c5ccccn5)nc34)CCN2)cc1` (stereo not shown) [drawing 2198], the inhibition at 30 µM is 0% in test [1] and 51 to 75% in test [2].
For `O=C(c1csc2c(O)nc(-c3ccccn3)nc12)N1CCN(Cc2ccccc2)CC1` [drawing 2187], in that order: 0% and 76 to 100%.
Consider `Nc1nc(-c2ccccn2)nc2c(-c3ccccc3)csc12` [drawing 2251], for which the inhibition at 30 µM in test [1] lay within 51 to 75%; in test [2], 76 to 100%.
For the compound `CN(CCc1ccncc1)C(=O)c1csc2c(O)nc(N)nc12`, the inhibition at 30 µM in test [1] is 0%; in test [2], 1 to 25%.
For `Oc1nc(-c2ccccn2)nc2c(-c3cncnc3)csc12` [drawing 2326], in that order: 0% and 26 to 50%.
For `Cc1sc2[nH]c(-c3ccccn3)nc(=O)c2c1-c1ccccc1` [drawing 2026], the inhibition at 30 µM in test [1] was 1 to 25%; in test [2], 0%.
With `COc1ccc(COC[C@H]2O[C@@H](c3csc4c(=O)[nH]c(-c5ccccn5)nc34)[C@H](O)[C@@H]2O)cc1` [drawing 2360], the inhibition at 30 µM in test [1] lay in the range of 26 to 50%; in test [2], 1 to 25%.
For `COc1cccc(-c2csc3c(O)nc(-c4ccccn4)nc23)c1` [drawing 2264], the inhibition at 30 µM was in the range of 26 to 50% in test [1] and 76 to 100% in test [2].
`Cc1nnc(C(Nc2nc(-c3ccccn3)nc3scc(-c4ccccc4)c23)c2ccccc2)n1C` (stereo not shown) [drawing 2133]: the inhibition at 30 µM in test [1] and in test [2] was 76 to 100% in each case.
As to `Cc1cc2c(=O)nc(-c3cc(OCC(F)F)ccn3)[nH]c2s1` [drawing 2031], the inhibition at 30 µM in test [1] and in test [2] was 1 to 25% in each case.
For the compound `COCCOCCN(C)C(=O)c1csc2c(O)nc(-c3ccccn3)nc12` [drawing 2113], the figures for the inhibition at 30 µM in test [1] and in test [2] were 0% and 26 to 50%, respectively.
Take `O=C(c1csc2c(O)nc(-c3ccccn3)nc12)N1CCC(N2CCCC2=O)CC1` [drawing 2106]: the results for the inhibition at 30 µM in test [1] and in test [2] were 26 to 50% and 1 to 25%, respectively.
For `Cn1cnc(-c2nc(O)c3c(-c4ccccc4)c(-c4ccncc4)sc3n2)c1` [drawing 2355], the inhibition at 30 µM in test [1] was 1 to 25%; in test [2], 0%.
As for `O=C(Nc1nnc(-c2ccccn2)[nH]1)c1ccc2ccccc2n1` [drawing 1942], the inhibition at 30 µM was 0% in test [1] and 1 to 25% in test [2].
As to `COc1ccc(-c2csc3c(O)nc(-c4ccccn4)nc23)c(C)c1` [drawing 2273], the inhibition at 30 µM in test [1] and in test [2] was 76 to 100% each time.
For `O=C(c1csc2c(O)nc(-c3ccccn3)nc12)N1CCC(c2ccncc2)C1` (stereo not shown) [drawing 2232], the inhibition at 30 µM in test [1] was 1 to 25%; in test [2] it was 76 to 100%.
Consider `COC(=O)c1cc2nc(-c3ccccn3)nc(O)c2s1` [drawing 2299], for which the inhibition at 30 µM in test [1] was in the range of 51 to 75%; in test [2] it was 76 to 100%.
As for `Cn1ccnc1-c1nc(O)c2scc(-c3cccc(OC(F)(F)F)c3)c2n1` [drawing 2430], the inhibition at 30 µM was 51 to 75% in test [1] and 76 to 100% in test [2].
For `Oc1nc(-c2ccccn2)nc2sc3c(c12)CCNC3` [drawing 2244], the inhibition at 30 µM in test [1] and in test [2] was 26 to 50% each time.
As to `O=C(c1csc2c(O)nc(-c3ccccn3)nc12)N1CCC(N2CCOCC2)CC1` [drawing 2105], the inhibition at 30 µM in test [1] was 0%; in test [2] it was 1 to 25%.
The like results for `O=C(Nc1nnc(-c2ccccn2)[nH]1)c1ccc(NC(=O)c2ccccn2)cc1` [drawing 1980] were, in that order, 1 to 25% and 0%.
In the case of `Cn1ccnc1-c1nc(O)c2scc(-c3cccc(C(F)(F)F)c3)c2n1` [drawing 2425], the inhibition at 30 µM in test [1] is 51 to 75%; in test [2], 76 to 100%.
With `CC(OCC(F)(F)F)C(=O)Nc1nnc(-c2ccccn2)[nH]1` (stereo not shown) [drawing 1948], the inhibition at 30 µM in test [1] was 1 to 25%; in test [2], 0%.
